Experimental data published in the NIST ThermoML archive (doi:10.1021/je030177j).

Experiment: mn = molality of the nth substance listed, in mol/kg
Conditions: Liquid, Capillary tube (Ostwald / Ubbelohde) method

O=S(=O)([O-])[O-].[Li+].[Li+] [lithium sulfate] + O
viscosity [mPa·s]
Conditions	100 kPa	10000 kPa	20000 kPa	30000 kPa
298.15 K, m1 = 0.1	0.939	–	–	–
298.15 K, m1 = 0.28	1.037	–	–	–
298.15 K, m1 = 0.56	1.195	1.195	1.195	1.195
298.15 K, m1 = 0.885	1.411	–	–	–
298.25 K, m1 = 0.28	–	1.035	1.035	1.036
298.35 K, m1 = 0.1	–	0.936	0.9361	0.9363
298.45 K, m1 = 0.885	–	1.404	1.404	1.404
303.15 K, m1 = 0.1	0.862	–	–	–
303.15 K, m1 = 0.28	0.951	–	–	–
303.15 K, m1 = 0.56	1.096	–	–	–
303.15 K, m1 = 0.885	1.294	–	–	–
306.19 K, m1 = 0.56	–	1.013	1.016	1.018
307.35 K, m1 = 0.885	–	1.17	1.173	1.176
307.93 K, m1 = 0.28	–	0.8517	0.8546	0.857
308.52 K, m1 = 0.1	–	0.7647	0.7659	0.7682
311.24 K, m1 = 0.56	–	0.9141	0.9168	0.9192
312.27 K, m1 = 0.28	–	0.778	0.7812	0.784
313.15 K, m1 = 0.1	0.707	–	–	–
313.15 K, m1 = 0.28	0.778	–	–	–
313.15 K, m1 = 0.56	0.891	–	–	–
313.15 K, m1 = 0.885	1.054	–	–	–
313.67 K, m1 = 0.1	–	0.6899	0.6927	0.6955
314.12 K, m1 = 0.885	–	1.016	1.019	1.023
321.55 K, m1 = 0.28	–	0.6508	0.6539	0.6569
322.35 K, m1 = 0.56	–	0.7352	0.7388	0.7422
322.55 K, m1 = 0.885	–	0.8649	0.8691	0.8731
323.15 K, m1 = 0.1	0.578	–	–	–
323.15 K, m1 = 0.28	0.63	–	–	–
323.15 K, m1 = 0.56	0.722	–	–	–
323.15 K, m1 = 0.885	0.853	–	–	–
324.55 K, m1 = 0.1	–	0.566	0.5689	0.5716
329.44 K, m1 = 0.28	–	0.567	0.57	0.5731
330.24 K, m1 = 0.885	–	0.7558	0.7598	0.7639
331.27 K, m1 = 0.56	–	0.6319	0.6354	0.6372
331.86 K, m1 = 0.1	–	0.5013	0.5035	0.5061
333.15 K, m1 = 0.1	0.49	–	–	–
333.15 K, m1 = 0.28	0.532	–	–	–
333.15 K, m1 = 0.56	0.61	–	–	–
333.15 K, m1 = 0.885	0.718	–	–	–
338.71 K, m1 = 0.28	–	0.4914	0.4942	0.4979
339.74 K, m1 = 0.1	–	0.4463	0.4491	0.452
340.72 K, m1 = 0.885	–	0.6414	0.6452	0.6494
340.73 K, m1 = 0.56	–	0.5456	0.5484	0.5514
343.15 K, m1 = 0.1	0.429	–	–	–
343.15 K, m1 = 0.28	0.462	–	–	–
343.15 K, m1 = 0.56	0.53	–	–	–
343.15 K, m1 = 0.885	0.624	–	–	–
343.35 K, m1 = 0.28	–	0.4594	0.4623	0.4653
347.05 K, m1 = 0.1	–	0.4034	0.4061	0.4088
348.15 K, m1 = 0.1	0.401	–	–	–
348.15 K, m1 = 0.28	0.433	–	–	–
348.15 K, m1 = 0.56	0.495	–	–	–
348.15 K, m1 = 0.885	0.582	–	–	–
348.95 K, m1 = 0.885	–	0.5714	0.5753	0.5792
349.55 K, m1 = 0.56	–	0.4831	0.4864	0.4897
351.04 K, m1 = 0.28	–	0.415	0.4183	0.4215
356.84 K, m1 = 0.1	–	0.3566	0.359	0.3621
358.15 K, m1 = 0.1	0.355	–	–	–
358.15 K, m1 = 0.28	0.381	–	–	–
358.15 K, m1 = 0.56	0.437	–	–	–
358.15 K, m1 = 0.885	0.511	–	–	–
359.14 K, m1 = 0.885	–	0.4999	0.5041	0.508
361.24 K, m1 = 0.56	–	0.4168	0.4191	0.4222
362.74 K, m1 = 0.28	–	0.3601	0.363	0.3662
365.04 K, m1 = 0.1	–	0.3241	0.3265	0.3291
369.72 K, m1 = 0.885	–	0.4415	0.4452	0.4495
372.13 K, m1 = 0.56	–	0.3691	0.3721	0.3752
375.75 K, m1 = 0.28	–	0.3127	0.3153	0.3181
378.85 K, m1 = 0.1	–	0.2812	0.2836	0.2862
379.05 K, m1 = 0.885	–	0.3993	0.4028	0.4065
383.06 K, m1 = 0.28	–	0.2916	0.2942	0.2974
384.05 K, m1 = 0.56	–	0.3274	0.3304	0.3335
384.27 K, m1 = 0.885	–	0.3782	0.382	0.3861
389.16 K, m1 = 0.1	–	0.2554	0.2577	0.2599
390.35 K, m1 = 0.56	–	0.3089	0.3124	0.3154
390.42 K, m1 = 0.28	–	0.2721	0.275	0.2784
390.72 K, m1 = 0.885	–	0.355	0.3591	0.3633
397.35 K, m1 = 0.885	–	0.3337	0.3371	0.3406
399.95 K, m1 = 0.28	–	0.2502	0.2528	0.2555
400.84 K, m1 = 0.1	–	0.2306	0.2331	0.236
401.73 K, m1 = 0.56	–	0.2797	0.2827	0.2855
405.24 K, m1 = 0.885	–	0.3115	0.3152	0.3194
409.36 K, m1 = 0.28	–	0.2314	0.234	0.2369
410.95 K, m1 = 0.1	–	0.2126	0.215	0.2192
411.05 K, m1 = 0.56	–	0.2584	0.2613	0.2644
415.13 K, m1 = 0.56	–	0.2502	0.2531	0.2564
415.76 K, m1 = 0.885	–	0.286	0.2901	0.2944
417.42 K, m1 = 0.28	–	0.2175	0.2199	0.2227
418.18 K, m1 = 0.56	–	0.2443	0.2469	0.2497
420.67 K, m1 = 0.1	–	0.198	0.201	0.2031
423.55 K, m1 = 0.28	–	0.208	0.2106	0.2133
424.05 K, m1 = 0.885	–	0.2687	0.2721	0.2756
424.55 K, m1 = 0.56	–	0.233	0.2359	0.239
430.26 K, m1 = 0.885	–	0.2564	0.2601	0.264
430.73 K, m1 = 0.28	–	0.1975	0.1999	0.2024
431.72 K, m1 = 0.1	–	0.1829	0.1849	0.1871
431.83 K, m1 = 0.56	–	0.2212	0.2231	0.2251
437.24 K, m1 = 0.56	–	0.213	0.2154	0.2185
439.37 K, m1 = 0.885	–	0.2402	0.244	0.2479
440.04 K, m1 = 0.28	–	0.1858	0.1885	0.191
446.35 K, m1 = 0.56	–	0.2	0.203	0.206
449.15 K, m1 = 0.885	–	0.2248	0.2283	0.2318
449.35 K, m1 = 0.28	–	0.175	0.1776	0.1803
449.55 K, m1 = 0.1	–	0.163	0.1654	0.168
452.17 K, m1 = 0.56	–	0.1927	0.1957	0.1984
458.12 K, m1 = 0.885	–	0.2109	0.2139	0.2179
458.17 K, m1 = 0.28	–	0.1658	0.1682	0.1704
459.12 K, m1 = 0.56	–	0.1843	0.1878	0.19
459.89 K, m1 = 0.1	–	0.1532	0.1553	0.1577
462.13 K, m1 = 0.28	–	0.162	0.1649	0.1674
466.79 K, m1 = 0.885	–	0.2003	0.2038	0.2071
468.13 K, m1 = 0.56	–	0.175	0.1787	0.1813
468.74 K, m1 = 0.28	–	0.1558	0.1582	0.1612
468.97 K, m1 = 0.1	–	0.1454	0.1477	0.15
473.25 K, m1 = 0.1	–	0.1421	0.1467	0.149
475.55 K, m1 = 0.28	–	0.15	0.1528	0.1555
476.95 K, m1 = 0.885	–	0.1885	0.192	0.1956
479.55 K, m1 = 0.56	–	0.1637	0.1668	0.1699
482.35 K, m1 = 0.1	–	0.1352	0.1378	0.1404
485.13 K, m1 = 0.885	–	0.1797	0.1835	0.1871
485.17 K, m1 = 0.28	–	0.1424	0.1452	0.1475
490.35 K, m1 = 0.1	–	0.1297	0.1322	0.1354
490.76 K, m1 = 0.56	–	0.1538	0.1567	0.1595
492.49 K, m1 = 0.885	–	0.1725	0.1761	0.179
495.14 K, m1 = 0.28	–	0.1352	0.1377	0.14
500.43 K, m1 = 0.885	–	0.1653	0.1688	0.1722
501.3 K, m1 = 0.1	–	0.1228	0.125	0.1275
509.17 K, m1 = 0.885	–	0.158	0.1614	0.1649
510.12 K, m1 = 0.56	–	0.1391	0.142	0.1455
510.93 K, m1 = 0.1	–	0.1172	0.1199	0.1235
515.27 K, m1 = 0.28	–	0.1224	0.1247	0.1271
517.75 K, m1 = 0.885	–	0.1513	0.155	0.1586
521.75 K, m1 = 0.1	–	0.1115	0.1143	0.117
522.75 K, m1 = 0.56	–	0.1308	0.1341	0.1373
525.95 K, m1 = 0.28	–	0.1166	0.1196	0.1225
526.12 K, m1 = 0.885	–	0.1453	0.1491	0.1527
530.53 K, m1 = 0.1	–	0.1072	0.1097	0.1122
532.85 K, m1 = 0.56	–	0.125	0.1281	0.131
538.24 K, m1 = 0.885	–	0.1372	0.1408	0.1443
540.08 K, m1 = 0.28	–	0.1096	0.1125	0.1156
541.04 K, m1 = 0.1	–	0.1024	0.1052	0.1087
547.35 K, m1 = 0.1	–	0.0998	0.1027	0.1055
550.72 K, m1 = 0.885	–	0.1297	0.1335	0.1372
551.24 K, m1 = 0.56	–	0.1151	0.1184	0.1214
560.12 K, m1 = 0.28	–	0.1011	0.104	0.1075
560.18 K, m1 = 0.885	–	0.1246	0.1282	0.1318
560.43 K, m1 = 0.1	–	0.0948	0.0977	0.0999
560.72 K, m1 = 0.56	–	0.1106	0.1132	0.115
569.15 K, m1 = 0.1	–	0.0917	0.0945	0.0977
572.05 K, m1 = 0.56	–	0.1056	0.1092	0.1126
573.45 K, m1 = 0.28	–	0.0962	0.0995	0.1025
574.55 K, m1 = 0.885	–	0.1176	0.1217	0.1255
574.75 K, m1 = 0.1	–	0.0897	0.0928	0.0957
